The test system of test [1] is KO-DIO mice. The test is described as follows: Immunoblot of signaling in PST-treated KO-DIO mice. The format is in vivo. The protocol:
Tissues were homogenized in a buffer containing phosphatase and protease inhibitors. Homogenates were subjected to SDS-PAGE and immunoblotted. Primary antibodies for phosphorylated and total Akt, AMPK, FoxO1, and JNK were from Cell Signaling Technology (Beverly, Mass.). Actin and Srebp-1 antibodies were from Santa Cruz Biotechnology (CA).
Phosphorylation and activation of Akt, an important component of the insulin signaling pathway was analyzed by Western blot. […] Weight-matched saline-treated WT-DIO or KO-DIO and PST-treated KO-DIO mice were fasted for 12 hrs, injected with insulin (0.4 mU/g BW, IP) for 10 min and sacrificed for tissue collection. Tissues were homogenized, lysates were subjected to SDS-PAGE and immunoblotted for p-Akt in muscle (14A, n=4), WAT (14B, n=4) and liver (14C, n=4) and for p-AMPK in muscle (14D), WAT (14E) and liver (14F). “*” Denotes comparison between the indicated groups. “*”: P<0.05, “**”: p<0.01, “***”: p<0.001.
The insulin-stimulated phosphorylation of FoxO1, downstream of Akt (82 kDa pFoxO1 and 95 kDa pFoxO1), in KO-DIO mice was higher in WAT and the liver than corresponding insulin-treated WT-DIO tissues (FIGS. 16A and 16B). Weight-matched saline-treated WT-DIO or KO-DIO and PST-treated KO-DIO mice were fasted for 12 hrs, injected with insulin (0.4 mU/g BW, IP) for 10 min and sacrificed for tissue collection. Tissues were homogenized, lysates were subjected to SDS-PAGE and subsequently immunoblotted to detect phospho-p95-FoxO1 and phospho-p82-FoxO1 signals in WAT (16A, n=4) and phospho-p82-FoxO1 signals in liver (16B, n=4), phospho-p54-Jnk and phospho-p46-Jnk signals in WAT (16C, n=4) and liver (16D, n=4), and p125-Srebp-1 and p-68-Srebp-1 (mature) signals in liver (16E, n=4). “*” Denotes comparison between the indicated groups. “*”: P<0.05, “**”: p<0.01, “***”: p<0.001.
A general note: In western blotting, separated proteins are transferred to a membrane and probed.

The subject of test [2] is KO-DIO mice. The test is described as follows: Hepatic gene expression in PST-treated KO-DIO mice. The format is in vivo. The following applies: PST 5 μg/g BW for 15 days. The protocol:
RNA from tissues was extracted using a kit (RNeasy Plus, Qiagen, Valencia, Calif.). After DNase digestion, 200 ng of RNA was transcribed into cDNA in a 20-μl reaction using a High Capacity cDNA Archive kit and this cDNA was amplified. PCR (25-μl reactions) contained 5 μl of cDNA, 2×SYBR Green PCR Master Mix, and 400 nM of each primer. Differences in the threshold cycle number (ΔCt) between the target gene, the housekeeping gene Gapdh and the ribosomal protein gene 36B4 were used to calculate differences in expression. Primer sequences are provided below.
To determine chronic effects, KO-NCD mice were treated with saline, PST (5 μg/g BW), PSTv1 (10 μg/g BW) or PST+PSTv1 for 15 days, fasted for 12 hrs after the last of injection and subjected to (FIG. 14C) GTT (2-way ANOVA: Treatment (Sal vs PST), Time, p<0.0001; Interaction, p<0.05; Treatment (PST vs PSTv1), p<0.0001; Time, p<0.0001; Interaction, p<0.01; n=7). The corresponding AUC is shown in (FIG. 14D). FIG. 14E reports liver glycogen at basal and during clamp in DIO mice (n=6). FIG. 14F reports chronic effects of PST (5 μg/g BW for 15 days) on expression of hepatic gluconeogenic genes (Pepck and G6pase) in DIO mice (n=6). FIG. 14G reports chronic effects of PST (5 μg/g BW for 15 days) on expression of hepatic lipid metabolic (Acc, Ppara, Cpt-1, Acox-1 and Srebp-1) genes in DIO mice (n=6). […]

In test [3] the test system is peritoneal macrophages. The test is described as follows: In vitro chemotaxis assay. Type of test: cell-based, mice. The protocol:
In vitro chemotaxis assays were performed as previously described. Briefly, thioglycollate-activated peritoneal macrophages were isolated from 8 week-old male C57BL/6J mice and pretreated with the indicated concentrations of PST for 2 hours at 37° C. in serum-free RPMI. For migration analysis, 200,000 peritoneal macrophages were placed in each of the upper chamber of a 4-μm polycarbonate filter (24-transwell format; Corning, Tewksbury, Mass.), whereas compounds resuspended in serum-free RPMI at the indicated concentrations were placed in the lower chamber. After 3 hours of migration at 37° C., cells were fixed in 4% paraformaldehyde, stained with DAPI and counted under the microscope.

For test [4], the system named is Chga-KO mice. The test is described as follows: Glucose-stimulated insulin secretion during GTT in Chga-KO mice. Type of test: in vivo. The text has this: As shown in FIGS. 4A-4D, to compare the effects of PSTv1 (the peptide with SEQ ID NO. 1) vs. PST on glucose-stimulated insulin secretion (GSIS), the inventors analyzed plasma insulin levels in Chga-KO mice during GTT experiments.

The subject of test [5] is KO-NCD mice. As to the kind of experiment: GTT in NCD-fed Chga-KO mice (acute and chronic). The format is in vivo. The protocol:
For glucose tolerance tests (GTT), glucose (1 mg/g) was injected intraperitoneally (IP-GTT) (at time zero) or gavaged orally (O-GTT) after a 12-hours fast. Tail-vein glucose levels were measured at −30, 0, 15, 30, 60, 90, and 120 minutes. For insulin tolerance tests (ITT), insulin (0.4 mU/g) was injected intraperitoneally and blood glucose levels were measured at the indicated time points. Chronic PST (5 μg/g/day) and PSTv1 (10 μg/day) treatments were carried out for 15 days. For acute treatment, either peptides or saline were injected 30 minutes before glucose or insulin injection. Synergy Software Kaleidagraph Version 4.0 calculated the area under the curve (AUC) for each line curve.
To determine acute effects, NCD fed Chga-KO mice (KO-NCD) were fasted for 12 hrs, treated with saline, PST (5 μg/g BW), PSTv1 (10 μg/g BW) or PST+PSTv1 for 30 min (−30 min) before injecting glucose (0 min) for (FIG. 14A) IP-GTT (2-way ANOVA: Treatment (Sal vs PST), p<0.0001, Time, p<0.0001; Interaction, p<0.002; Treatment (PST vs PSTv1), p<0.0001; Time, p<0.0001; Interaction, p<0.005; n=7). The corresponding AUC is shown in (FIG. 14B). […]

Where no end group is shown, it is not given here.

Take “PEGKGEQEHSQQKEEEEEMAVVPQGLFRG-amide (PEGKGEQEHSQQKEEEEEMAVVPQGLFRG-NH2) [PST, Wild-type human pancreastatin, a chromogranin A derived peptide]”: in test [1] (WAT), the “FoxO1 signaling in WAT” value was “modulated” and the “increased insulin-stimulated pFoxO1-p95 signals in WAT” value is “reversed”. In addition, the “hepatic AMPK, FoxO1 or Jnk signaling” value in test [1] (liver) is recorded as “did not alter”. Further, the “Srebp-1c p68 to p125 ratio” value in test [1] (liver, compared to untreated KO-DIO) is on record as “decreased”. In test [1] (muscle, WAT and liver), the AMPK signaling result was “did not change the overall pattern” and the “stimulation of Akt phosphorylation by insulin” value is “completely inhibited”. Moreover, in test [2], the “lower mRNA levels of Pepck and G6pase in KO-DIO liver” value is reported as “reversed”. For the same substance, in test [2] (liver), the “expression of Acox-1 and Cpt-1” value is recorded as “increased”. In addition, the “chemotaxis relative to Mcp-1” value in test [3] (10 nM PST vs 10 nM Mcp-1) was 44%. Further, the “chemotaxis compared to saline-treated controls” value in test [3] (peritoneal macrophage cultures) is recorded as “significantly higher levels of chemotaxis”. In test [4], the “glucose-stimulated insulin secretion (GSIS)” value is “lowers GSIS” and the plasma glucose concentration entry is reported as “without lowering plasma glucose concentration”. In addition, the “blood glucose after acute PST treatment” value in test [5] (acute, Chga-KO mice on normal chow diet) is “induces hyperglycemia”. Also, the “insulin sensitivity (GTT)” value in test [5] (chronic PST 5 μg/g BW for 15 days, Chga-KO mice on NCD) is reported as “induced insulin resistance”.
